Measured values as given in patent US10479819B2 (priority 2014, dated 2019).
Where two headings read alike, the source gives them in different places. Starred links: 1 amine or outer side, 2 acyl side, 3 side chain; linkers in the order of their positions; H or OH if unused. Non-standard residues stand in square brackets, D forms with d. Residues, ends and D or L forms follow the SMILES beside them. Groups on a side chain read outwards from the residue. *: point of attachment. γGlu = O=C(O)[C@H](CCC(=O)[*:2])N[*:1]; Palmitoyl = CCCCCCCCCCCCCCCC(=O)*; PEG2 = NCCOCCOCCC(=O)O

Key:
human GLP-1R = biological target: T1, human GLP-1R (Homo sapiens, UniProt P43220); assay: In vitro activity on GLP-1R, CRE-luciferase HEK-293 cells; format: cell-based; conditions: for GLP-1R/GCGR: ratio of EC50 GLP-1R to EC50 GCGR
T1 construct: expressed in transfected cells
In short: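 HEK-293 cells stably expressing human GLP-1R or human GCGR with CRE-luciferase reporter, 5000 cells/well in DMEM/10% FBS, exposed to compound. Luminescence read after luciferase reagent; EC50 taken from concentration-response curves.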

[1] = Pharmacokinetic analysis after IV or SC administration in male CD1 mice; conditions: for Tmax / half-life: iv
Protocol: Pharmacokinetic parameters of the drugs were calculated by methods of model dependence (for data obtained from IV) and model independence (data obtained from SC).

male C57B1/6J mice = assay: Oral glucose tolerance test in male C57B1/6J mice; format: in vivo; conditions: 250 μg/kg; for AUC of blood glucose in all four OGTT curve periods (0-480 min) compared with carrier (PBS): P<0.05; for effect on oral glucose tolerance: male C57B1/6J mice
Protocol: 12-16 week-old male C57B1/6J mice (Nanjing University model animal research center) were randomly divided into groups 8 in each group, according to similar blood glucose (assessed by the blood samples obtained from the tail tip). After fasting (for 6 hours), the animals were administrated, and about 4 hours later, initial blood samples (fasting blood glucose level) were taken. Subsequently, the animals were administrated with an oral dose of glucose, and then put back into their cages (t=0). Blood glucose was measured at t=15 minutes, t=30 minutes, t=60 minutes, t=90 minutes and t=120 minutes. And then the animals were administrated with an oral dose of glucose again, and blood glucose was tracked until 8 hours.

DIO mice = assay: Body weight reduction in DIO (obese) mice; format: in vivo; conditions: 250 μg/kg SC daily, day 11 to day 30, DIO mice
Description: Forty 25-week-old DIO mice (Nanjing University model animal research center) were randomly divided into five groups (compound 4, 5, 6, 7, and normal saline group), 8 in each group, having no difference in the basis weight of each group.

human GCGR = biological target: T2, human GCGR (Homo sapiens, UniProt P47871); assay: In vitro activity on GCGR, CRE-luciferase HEK-293 cells; format: cell-based
T2 construct: expressed in transfected cells
Protocol: 5000 of HEK-293 cells, which are used in CRE-luciferase system and express human GCGR or GLP-1R stably, were inoculated into 384 well plates according to […] DMEM/10% FBS media/well. […] After incubation, […] of luciferase reagent was added directly to each plate and mixed gently for 2 minutes. The plates were placed into an Elmer Perkin plate reader for reading. Concentration curve of the compound was made by drawing software Prism 5, and the EC50 value was calculated.

T2 sequence (P47871 26-477): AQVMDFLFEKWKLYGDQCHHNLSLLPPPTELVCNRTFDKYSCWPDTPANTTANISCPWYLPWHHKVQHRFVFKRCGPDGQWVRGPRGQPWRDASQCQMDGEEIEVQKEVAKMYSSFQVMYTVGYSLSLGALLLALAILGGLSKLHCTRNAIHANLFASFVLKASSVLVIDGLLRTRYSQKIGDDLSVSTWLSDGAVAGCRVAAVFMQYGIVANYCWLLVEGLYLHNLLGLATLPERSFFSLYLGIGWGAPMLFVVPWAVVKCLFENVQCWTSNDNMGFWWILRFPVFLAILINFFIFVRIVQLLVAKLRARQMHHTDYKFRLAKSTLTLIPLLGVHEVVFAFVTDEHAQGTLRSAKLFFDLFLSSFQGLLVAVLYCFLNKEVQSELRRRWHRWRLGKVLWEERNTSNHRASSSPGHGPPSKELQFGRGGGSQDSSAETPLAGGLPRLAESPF
T1 sequence (P43220 24-463): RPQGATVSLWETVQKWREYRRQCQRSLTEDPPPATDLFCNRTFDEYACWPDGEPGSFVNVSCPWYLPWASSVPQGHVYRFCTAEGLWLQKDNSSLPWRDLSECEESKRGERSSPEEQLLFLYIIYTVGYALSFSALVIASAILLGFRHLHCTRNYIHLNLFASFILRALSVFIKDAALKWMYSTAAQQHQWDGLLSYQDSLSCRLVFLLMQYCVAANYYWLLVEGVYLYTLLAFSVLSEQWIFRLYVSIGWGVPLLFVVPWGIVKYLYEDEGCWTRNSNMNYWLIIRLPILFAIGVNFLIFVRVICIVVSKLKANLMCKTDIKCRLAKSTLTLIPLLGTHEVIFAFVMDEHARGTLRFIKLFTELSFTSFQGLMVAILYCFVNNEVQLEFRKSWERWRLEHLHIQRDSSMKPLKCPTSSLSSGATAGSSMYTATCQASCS

## CCCCCCCCCCCCCCCC(=O)NCCOCCOCCC(=O)NCCOCCOCCC(=O)NCCCC[C@H](NC(=O)[C@H](CC(=O)O)NC(=O)[C@H](CO)NC(=O)[C@@H](NC(=O)[C@H](Cc1ccccc1)NC(=O)[C@@H](NC(=O)CNC(=O)[C@H](CCC(N)=O)NC(=O)[C@@H](CO)NC(=O)[C@@H](N)Cc1c[nH]cn1)[C@@H](C)O)[C@@H](C)O)C(=O)N[C@@H](CO)C(=O)N[C@@H](CCCCN)C(=O)N[C@@H](Cc1ccc(O)cc1)C(=O)N[C@@H](CC(C)C)C(=O)N[C@@H](CC(=O)O)C(=O)NC(C)(C)C(=O)N[C@@H](CCCNC(=N)N)C(=O)N[C@@H](CCCNC(=N)N)C(=O)N[C@@H](C)C(=O)N[C@@H](CCC(N)=O)C(=O)N[C@@H](CC(=O)O)C(=O)N[C@@H](Cc1ccccc1)C(=O)N[C@H](C(=O)N[C@@H](CCC(N)=O)C(=O)N[C@@H](Cc1c[nH]c2ccccc12)C(=O)N[C@@H](CC(C)C)C(=O)N[C@@H](CCSC)C(=O)N[C@@H](CC(N)=O)C(=O)N[C@H](C(=O)NCC(=O)NCC(=O)N1CCC[C@H]1C(=O)N[C@@H](CO)C(=O)N[C@@H](CO)C(=O)NCC(=O)N[C@@H](C)C(=O)N1CCC[C@H]1C(=O)N1CCC[C@H]1C(=O)N1CCC[C@H]1C(=O)N[C@@H](CO)C(N)=O)[C@@H](C)O)C(C)C [Compound 5]
Human GLP-1R
  GLP-1R/GCGR: 0.1
Human GLP-1R; read-out: GLP-1R (EC50)
  EC50: 0.06 nM
[1]; mouse, in vivo
  clinical adverse effect: no clinical adverse effect
  Tmax: ~12 h
  half-life: 4 to 6 h
[1]; mouse, in vivo, sc
  peak time: more than 12 hours
Male C57B1/6J mice
  AUC of blood glucose in all four OGTT curve periods (0-480 min) compared with carrier (PBS): significantly decreased
  effect on oral glucose tolerance: significantly reduced the oral glucose tolerance
DIO mice
  weight loss: about 20%
DIO mice; P<0.05
  body weight compared with normal saline group: significantly lower
Human GCGR; read-out: GCGR (EC50)
  EC50: 0.43 nM

## CCCCCCCCCCCCCCCC(=O)NCCOCCOCCC(=O)NCCOCCOCCC(=O)NCCCC[C@H](NC(=O)[C@H](C)NC(=O)[C@H](C)NC(=O)[C@H](CCCCN)NC(=O)[C@H](CCC(=O)O)NC(=O)[C@H](CC(=O)O)NC(=O)[C@H](CC(C)C)NC(=O)[C@H](Cc1ccc(O)cc1)NC(=O)[C@H](CCCCN)NC(=O)[C@H](CO)NC(=O)[C@H](Cc1ccc(O)cc1)NC(=O)[C@H](CC(=O)O)NC(=O)[C@H](CO)NC(=O)[C@@H](NC(=O)[C@H](Cc1ccccc1)NC(=O)[C@@H](NC(=O)CNC(=O)[C@H](CCC(N)=O)NC(=O)[C@@H](CO)NC(=O)[C@@H](N)Cc1c[nH]cn1)[C@@H](C)O)[C@@H](C)O)C(=O)N[C@@H](CCC(=O)O)C(=O)N[C@@H](Cc1ccccc1)C(=O)N[C@H](C(=O)N[C@@H](CCC(=O)O)C(=O)N[C@@H](Cc1c[nH]c2ccccc12)C(=O)N[C@@H](CC(C)C)C(=O)N[C@@H](CC(C)C)C(=O)N[C@@H](CC(N)=O)C(=O)NCC(=O)NCC(=O)N1CCC[C@H]1C(=O)N[C@@H](CO)C(=O)N[C@@H](CO)C(=O)NCC(=O)N[C@@H](C)C(=O)N1CCC[C@H]1C(=O)N1CCC[C@H]1C(=O)N1CCC[C@H]1C(=O)N[C@@H](CO)C(N)=O)[C@@H](C)CC [Compound 23] (H-H[dS]QGTFTSDYSKYLDEKAAK([PEG2-PEG2-Palmitoyl])EFIEWLLNGGPSSGAPPPS-NH2)
Human GLP-1R
  EC50: 0.13 nM
  GLP-1R/GCGR: 0.30
[1]; IV or SC route, male CD1 mice
  clinical adverse effect: no clinical adverse effect
[1]; mouse, in vivo
  Tmax: ~12 h
  half-life: 4 to 6 h
Male C57B1/6J mice
  AUC of blood glucose in all four OGTT curve periods (0-480 min) compared with carrier (PBS): significantly decreased
  effect on oral glucose tolerance: significantly reduced the oral glucose tolerance
Human GCGR
  EC50: 0.43 nM

## CSCC[C@H](NC(=O)[C@H](CC(C)C)NC(=O)[C@H](Cc1c[nH]c2ccccc12)NC(=O)[C@H](CCC(N)=O)NC(=O)[C@@H](NC(=O)[C@H](Cc1ccccc1)NC(=O)[C@H](CC(=O)O)NC(=O)[C@H](CCC(N)=O)NC(=O)[C@H](C)NC(=O)[C@H](CCCNC(=N)N)NC(=O)[C@H](CCCNC(=N)N)NC(=O)[C@H](CCCCNC(=O)CCOCCOCCNC(=O)CCOCCOCCNC(=O)CC[C@H](NC(=O)CCCCCCCCCCCCCCCCC(=O)O)C(=O)O)NC(=O)[C@H](CC(=O)O)NC(=O)[C@H](CC(C)C)NC(=O)[C@H](Cc1ccc(O)cc1)NC(=O)[C@H](CCCCN)NC(=O)[C@H](CO)NC(=O)[C@H](Cc1ccc(O)cc1)NC(=O)[C@H](CC(=O)O)NC(=O)[C@H](CO)NC(=O)[C@@H](NC(=O)[C@H](Cc1ccccc1)NC(=O)[C@@H](NC(=O)CNC(=O)[C@H](CCC(N)=O)NC(=O)[C@@H](CO)NC(=O)[C@@H](N)Cc1c[nH]cn1)[C@@H](C)O)[C@@H](C)O)C(C)C)C(=O)N[C@@H](CC(N)=O)C(=O)N[C@H](C(=O)NCC(=O)NCC(=O)N1CCC[C@H]1C(=O)N[C@@H](CO)C(=O)N[C@@H](CO)C(=O)NCC(=O)N[C@@H](C)C(=O)N1CCC[C@H]1C(=O)N1CCC[C@H]1C(=O)N1CCC[C@H]1C(=O)N[C@@H](CO)C(N)=O)[C@@H](C)O [Compound 11]
Human GLP-1R
  GLP-1R/GCGR: 0.8
Human GLP-1R; read-out: GLP-1R (EC50)
  EC50: 0.15 nM
Human GCGR; read-out: GCGR (EC50)
  EC50: 0.18 nM

## CCCCCCCCCCCCCCCC(=O)N[C@@H](CCC(=O)NCCOCCOCCC(=O)NCCOCCOCCC(=O)NCCCC[C@H](NC(=O)[C@H](C)NC(=O)[C@H](C)NC(=O)[C@H](CCCCN)NC(=O)[C@H](CCC(=O)O)NC(=O)[C@H](CC(=O)O)NC(=O)[C@H](CC(C)C)NC(=O)[C@H](Cc1ccc(O)cc1)NC(=O)[C@H](CCCCN)NC(=O)[C@H](CO)NC(=O)[C@H](Cc1ccc(O)cc1)NC(=O)[C@H](CC(=O)O)NC(=O)[C@H](CO)NC(=O)[C@@H](NC(=O)[C@H](Cc1ccccc1)NC(=O)[C@@H](NC(=O)CNC(=O)[C@H](CCC(N)=O)NC(=O)[C@@H](CO)NC(=O)[C@@H](N)Cc1c[nH]cn1)[C@@H](C)O)[C@@H](C)O)C(=O)N[C@@H](CCC(=O)O)C(=O)N[C@@H](Cc1ccccc1)C(=O)N[C@H](C(=O)N[C@@H](CCC(=O)O)C(=O)N[C@@H](Cc1c[nH]c2ccccc12)C(=O)N[C@@H](CC(C)C)C(=O)N[C@@H](CC(C)C)C(=O)N[C@@H](CC(N)=O)C(=O)NCC(=O)NCC(=O)N1CCC[C@H]1C(=O)N[C@@H](CO)C(=O)N[C@@H](CO)C(=O)NCC(=O)N[C@@H](C)C(=O)N1CCC[C@H]1C(=O)N1CCC[C@H]1C(=O)N1CCC[C@H]1C(=O)N[C@@H](CO)C(N)=O)[C@@H](C)CC)C(=O)O [Compound 24] (H-H[dS]QGTFTSDYSKYLDEKAAK([PEG2-PEG2-γGlu-Palmitoyl])EFIEWLLNGGPSSGAPPPS-NH2)
Human GLP-1R
  GLP-1R/GCGR: 0.28
[1]; IV or SC route, male CD1 mice
  clinical adverse effect: no clinical adverse effect
[1]; mouse, in vivo
  Tmax: ~12 h
  half-life: 4 to 6 h
Male C57B1/6J mice
  AUC of blood glucose in all four OGTT curve periods (0-480 min) compared with carrier (PBS): significantly decreased
  effect on oral glucose tolerance: significantly reduced the oral glucose tolerance
Human GCGR
  EC50: 0.58 nM

## CCCCCCCCCCCCCCCC(=O)N[C@@H](CCC(=O)NCCOCCOCCC(=O)NCCOCCOCCC(=O)NCCCC[C@H](NC(=O)[C@H](CO)NC(=O)[C@H](Cc1ccc(O)cc1)NC(=O)[C@H](CC(=O)O)NC(=O)[C@H](CO)NC(=O)[C@@H](NC(=O)[C@H](Cc1ccccc1)NC(=O)[C@@H](NC(=O)CNC(=O)[C@H](CCC(N)=O)NC(=O)[C@@H](CO)NC(=O)[C@@H](N)Cc1c[nH]cn1)[C@@H](C)O)[C@@H](C)O)C(=O)N[C@@H](CCCCN)C(=O)N[C@@H](CC(C)C)C(=O)N[C@@H](CC(=O)O)C(=O)NC(C)(C)C(=O)N[C@@H](CCCNC(=N)N)C(=O)N[C@@H](CCCNC(=N)N)C(=O)N[C@@H](C)C(=O)N[C@@H](CCC(N)=O)C(=O)N[C@@H](CC(=O)O)C(=O)N[C@@H](Cc1ccccc1)C(=O)N[C@H](C(=O)N[C@@H](CCC(N)=O)C(=O)N[C@@H](Cc1c[nH]c2ccccc12)C(=O)N[C@@H](CC(C)C)C(=O)N[C@@H](CCSC)C(=O)N[C@@H](CC(N)=O)C(=O)N[C@H](C(=O)NCC(=O)NCC(=O)N1CCC[C@H]1C(=O)N[C@@H](CO)C(=O)N[C@@H](CO)C(=O)NCC(=O)N[C@@H](C)C(=O)N1CCC[C@H]1C(=O)N1CCC[C@H]1C(=O)N1CCC[C@H]1C(=O)N[C@@H](CO)C(N)=O)[C@@H](C)O)C(C)C)C(=O)O [Compound 17]
Human GLP-1R
  GLP-1R/GCGR: 1.2
Human GCGR; read-out: GCGR (EC50)
  EC50: 0.58 nM
